Experimental data reported in patent US12257247B2 (Monte Rosa Therapeutics AG, priority 2023, dated 2025).
Like-named read-outs stand apart in the source and are kept apart here.

Biological target: T1, VAV1 (Homo sapiens, UniProt P15498+Q96SW2)
T1 construct: A heterozygous VAV1 C-terminal HiBiT knock-in pool was generated at Monte Rosa Therapeutics from a clonal Jurkat cell; endogenous in cells; host or cells: Jurkat clone stably expressing LgBiT, homozygous GSPT1-G575N; heterozygous VAV1-HiBiT knock-in pool
Assay: VAV1 degradation activity, VAV1-HiBiT knock-in Jurkat luminescence assay (Example A, Table 1)
Type: cell-based
Conditions: VAV1-HiBiT knock-in Jurkat cells, luminescence read at 6 and 24 hours; for Dmax: Jurkat
Method in brief: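 Luminescence was measured at 6 and 24 h after adding compound (10 μM stock) to VAV1-HiBiT knock-in Jurkat cells, which had been pre-incubated ~16 h at 37° C. in RPMI/10% FBS containing Endurazine. EC50 values came from control-normalised responses fitted to a 3-parameter logistic model with hillslope fixed at 1.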

[1] = read-out: VAV1 DC50 (nM), class

| Compound | Dmax (read-out: VAV1 Dmax %) [%] | Dmax (read-out: VAV1 Dmax %, class) [%] | DC50 (read-out: VAV1 DC50) [nM] | DC50 [1] [nM] |
| --- | --- | --- | --- | --- |
| O=C1CCC(c2cccc(-c3ccc(N4C(=O)CCC45CC5)cc3)c2Cl)C(=O)N1 (stereo not drawn) [Compound 414, 3-(2-chloro-4′-(5-oxo-4-azaspiro[2.4]heptan-4-yl)-[1,1′-biphenyl]-3-yl)piperidine-2,6-dione] | 97.7 | > 90 | 5.85 | ≤ 100 |
| O=C1CCC(c2cccc(-c3ccc(N4C(=O)OCC45CCC5)cc3)c2Cl)C(=O)N1 (stereo not drawn) [Compound 416, 3-(2-chloro-4′-(6-oxo-7-oxa-5-azaspiro[3.4]octan-5-yl)-[1,1′-biphenyl]-3-yl)piperidine-2,6-dione] | 98 | > 90 | 3.54 | ≤ 100 |
| O=C1CCC(c2cccc(-c3ccc(-n4cccc(CC(F)(F)F)c4=O)cc3)c2Cl)C(=O)N1 (stereo not drawn) [Compound 417, 3-(2-chloro-4′-(2-oxo-3-(2,2,2-trifluoroethyl)pyridin-1(2H)-yl)-[1,1′-biphenyl]-3-yl)piperidine-2,6-dione] | 98.5 | > 90 | 6.68 | ≤ 100 |
| CN1CCCN(Cc2ccc(-c3cccc(C4CCC(=O)NC4=O)c3Cl)cc2)C1=O (stereo not drawn) [Compound 424, 3-(2-chloro-4′-((3-methyl-2-oxotetrahydropyrimidin-1(2H)-yl)methyl)-[1,1′-biphenyl]-3-yl)piperidine-2,6-dione] | 95.3 | > 90 | 9.94 | ≤ 100 |
| CN1CCCN(Cc2ccc(-c3cccc(C4CCC(=O)NC4=O)c3Cl)cc2F)C1=O (stereo not drawn) [Compound 425, 3-(2-chloro-3′-fluoro-4′-((3-methyl-2-oxotetrahydropyrimidin-1(2H)-yl)methyl)-[1,1′-biphenyl]-3-yl)piperidine-2,6-dione] | 96.5 | > 90 | 10.7 | ≤ 100 |
| O=C1CCC(c2cccc(-c3ccc(N4C(=O)OCC45CC5)cc3)c2Cl)C(=O)N1 (stereo not drawn) [Compound 426, 3-(2-chloro-4′-(5-oxo-6-oxa-4-azaspiro[2.4]heptan-4-yl)-[1,1′-biphenyl]-3-yl)piperidine-2,6-dione] | 96.5 | > 90 | 8.9 | ≤ 100 |
| O=C1CCC(c2cccc(-c3cnc(-n4ccccc4=O)c(F)c3)c2Cl)C(=O)N1 (stereo not drawn) [Compound 427, 3-(2-chloro-3-(3′-fluoro-2-oxo-2H-[1,2′-bipyridin]-5′-yl)phenyl)piperidine-2,6-dione] | 79.6 | 60 to 90 | 246 | 100 to 1000 |
| Cn1ccc(C(F)(F)F)c(-c2ccc(-c3cccc(C4CCC(=O)NC4=O)c3Cl)cc2)c1=O (stereo not drawn) [Compound 428, 3-(2-chloro-4′-(1-methyl-2-oxo-4-(trifluoromethyl)-1,2-dihydropyridin-3-yl)-[1,1′-biphenyl]-3-yl)piperidine-2,6-dione] | 98.8 | > 90 | 2.25 | ≤ 100 |
| O=C1CCC(c2cccc(-c3ccc(CN4CCCCC4=O)nc3)c2Cl)C(=O)N1 (stereo not drawn) [Compound 433, 3-(2-chloro-3-(6-((2-oxopiperidin-1-yl)methyl)pyridin-3-yl)phenyl)piperidine-2,6-dione] | 33.6 | < 60 | ≥ 10000 | > 1000 |

Next, values leading:

| Dmax (read-out: VAV1 Dmax %) [%] | Dmax (read-out: VAV1 Dmax %, class) [%] | DC50 (read-out: VAV1 DC50) [nM] | DC50 [1] [nM] | Compound |
| --- | --- | --- | --- | --- |
| 97.2 | > 90 | 4.87 | ≤ 100 | CC1(C)COC(=O)N1c1ccc(-c2cccc(C3CCC(=O)NC3=O)c2Cl)cc1 (stereo not drawn) [Compound 415, 3-(2-chloro-4′-(4,4-dimethyl-2-oxooxazolidin-3-yl)-[1,1′-biphenyl]-3-yl)piperidine-2,6-dione] |
| 45.2 | < 60 | ≥ 10000 | > 1000 | O=C1CCC(c2cccc(-c3ccc(N4C(=O)CC45CCOCC5)cc3)c2Cl)C(=O)N1 (stereo not drawn) [Compound 418, 3-(2-chloro-4′-(2-oxo-7-oxa-1-azaspiro-[3.5]nonan-1-yl)-[1,1′-biphenyl]-3-yl)piperidine-2,6-dione] |
| 90.7 | > 90 | 43.1 | ≤ 100 | O=C1CCC(c2cccc(-c3ccc(-n4cccnc4=O)c(F)c3)c2Cl)C(=O)N1 (stereo not drawn) [Compound 419, 3-(2-chloro-3′-fluoro-4′-(2-oxopyrimidin-1(2H)-yl)-[1,1′-biphenyl]-3-yl)piperidine-2,6-dione] |
| 98.8 | > 90 | 2.43 | ≤ 100 | Cc1cnc(Cc2ccc(-c3cccc(C4CCC(=O)NC4=O)c3Cl)cc2)nc1 (stereo not drawn) [Compound 420, 3-(2-chloro-4′-((5-methylpyrimidin-2-yl)methyl)-[1,1′-biphenyl]-3-yl)piperidine-2,6-dione] |
| 97.8 | > 90 | 6.96 | ≤ 100 | COc1ccnc(Cc2ccc(-c3cccc(C4CCC(=O)NC4=O)c3Cl)cc2)n1 (stereo not drawn) [Compound 421, 3-(2-chloro-4′-((4-methoxypyrimidin-2-yl)methyl)-[1,1′-biphenyl]-3-yl)piperidine-2,6-dione] |
| 98.4 | > 90 | 4.35 | ≤ 100 | COc1cnc(Cc2ccc(-c3cccc(C4CCC(=O)NC4=O)c3Cl)cc2)nc1 (stereo not drawn) [Compound 422, 3-(2-chloro-4′-((5-methoxypyrimidin-2-yl)methyl)-[1,1′-biphenyl]-3-yl)piperidine-2,6-dione] |
| 74.6 | 60 to 90 | 144 | 100 to 1000 | O=C1CCC(c2cccc(-c3ccc(CS(=O)(=O)N4CCCC4)cc3)c2Cl)C(=O)N1 (stereo not drawn) [Compound 423, 3-(2-chloro-4′-((pyrrolidin-1-ylsulfonyl)methyl)-[1,1′-biphenyl]-3-yl)piperidine-2,6-dione] |
| 96.9 | > 90 | 5.19 | ≤ 100 | O=C1CCC(c2cccc(-c3ccc(N4CCCN(CC(F)F)C4=O)cc3)c2Cl)C(=O)N1 (stereo not drawn) [Compound 429, 3-(2-chloro-4′-(3-(2,2-difluoroethyl)-2-oxotetrahydropyrimidin-1(2H)-yl)-[1,1′-biphenyl]-3-yl)piperidine-2,6-dione] |
| 72.6 | 60 to 90 | 261 | 100 to 1000 | O=C1CCC(c2cccc(-c3ccc(Cc4ncco4)nc3)c2Cl)C(=O)N1 (stereo not drawn) [Compound 430, 3-(2-chloro-3-(6-(oxazol-2-ylmethyl)pyridin-3-yl)phenyl)piperidine-2,6-dione] |
| 23.5 | < 60 | ≥ 10000 | > 1000 | O=C1CCC(c2cccc(-c3ccc(CN4CCCOC4=O)nc3)c2Cl)C(=O)N1 (stereo not drawn) [Compound 431, 3-(2-chloro-3-(6-((2-oxo-1,3-oxazinan-3-yl)methyl)pyridin-3-yl)phenyl)piperidine-2,6-dione] |
| 71.9 | 60 to 90 | 182 | 100 to 1000 | CN1CCCN(Cc2ccc(-c3cccc(C4CCC(=O)NC4=O)c3Cl)cn2)C1=O (stereo not drawn) [Compound 432, 3-(2-chloro-3-(6-((3-methyl-2-oxotetrahydropyrimidin-1(2H)-yl)methyl)pyridin-3-yl)phenyl)piperidine-2,6-dione] |
| 46.2 | < 60 | ≥ 10000 | > 1000 | O=C1CCC(c2cccc(-c3ccc(Cn4cccnc4=O)nc3)c2Cl)C(=O)N1 (stereo not drawn) [Compound 434, 3-(2-chloro-3-(6-((2-oxopyrimidin-1(2H)-yl)methyl)pyridin-3-yl)phenyl)piperidine-2,6-dione] |
